In patent US9883675B2, “Method for controlling pests” (SUMITOMO CHEMICAL COMPANY, LIMITED, priority 2013, dated 2018):

Tested on: Diamondback moth (Plutella xylostella)
Assay: Test Example 1: Japanese radish seed treatment, mortality of Diamondback moth larvae
Type: in vivo
Details: 48 h, Diamondback moth third instar larvae released 4 days after seeding, observed 2 days after release, average of two replications; for mortality at 0.01 mg: dose 0.01 mg/1 grain of seed; for mortality at 0.2 mg: dose 0.2 mg/1 grain of seed
Experimental: Each of the present fused heterocyclic compounds 3, 4, 5, 9, 15, 16, 17, 18, 19, 20, 22, 25, 72, 74, 85, 130, 399, 409, 414, 419, 443, 444, 445, 464 and 467 was dissolved in acetone (available from Wako Pure Chemical Industries, Ltd.) containing 5% (W/V) SOLGEN TW-20 (available from Daiichi-Kogyo Seiyaku Co. Ltd.) so as to give a prescribed concentration, and to prepare the testing solution.
Nine (9) grains of the Japanese raddish (Raphanus sativas var. longipinnatus) were placed in a 2 ml volume polypropylene microtube (manufactured by As One Co.) and thereto was added 18 μl of the above testing solution and the seeds in the microtube were shaken and stirred on Stirrer (Trade name: VORTEX-GENIE2, manufactured by Scientific Industries, Inc.). After the testing solution was spread uniformly to the whole seed, the seeds were allowed to air dry.
To a 90 ml volume of plastic cup filled with ten (10) g of culture soil (Trade name: Aisai No. 1; available from Katakura Chikkarin Co., Ltd.) was added water (5 ml) and thereto was seeded three (3) grains of the above seeds.
At four days after the seeding, Diamondback moth (Plutella xylostella) at the third instar larval stages were released in a ratio of 10 (ten) heads of insects per the cup, and then the cups were covered with nylon gauze and covered with a lid (hereinafter, referred to as “treated group”).
On the other hand, Japanese raddish was seeded by the similar procedures to the treated group except that the present fused heterocyclic compound was not dissolved in acetone (available from Wako Pure Chemical Industries, Ltd.) containing 5% (W/V) SOLGEN TW-20 (available from Daiichi-Kogyo Seiyaku Co. Ltd.), and the larvae were released, and the cups were covered with a lid (hereinafter, referred to as “Untreated group”).
At two days after the release, the surviving and death of the larvae were observed and on basis of the results of the observation, the mortalities of both groups were calculated by the following equation 1), respectively. Two replication tests were performed on each group. The average value is shown below. Mortality (%)=(Total number of […])/Total number of Tested insects×100 Equation 1)

Question: `CCS(=O)(=O)c1cccnc1-c1nc2cc(C(F)(F)F)cnc2n1C` [Present fused heterocyclic compound 3, 2-(3-ethylsulfonylpyridin-2-yl)-3-methyl-6-trifluoromethyl-3H-imidazo[4,5-b]pyridine] was tested. Which mortality at 0.01 mg did it give?
Answer: 100%

Question: What about the mortality at 0.2 mg of the same molecule?
Answer: 100%

Question: Which mortality at 0.01 mg does the source give for `CCSc1cc(C(F)(F)F)cnc1-c1nc2cc(C(F)(F)F)cnc2n1C` [Present fused heterocyclic compound 4, 2-(3-ethylsulfanyl-5-trifluoromethylpyridin-2-yl)-3-methyl-6-trifluoromethyl-3H-imidazo[4,5-b]pyridine] here?
Answer: 100%

Question: What about the mortality at 0.2 mg of the same molecule?
Answer: 100%

Question: For `CCS(=O)(=O)c1cc(C(F)(F)F)cnc1-c1nc2cc(C(F)(F)F)cnc2n1C` [Present fused heterocyclic compound 5, 2-(3-ethylsulfonyl-5-trifluoromethylpyridin-2-yl)-3-methyl-6-trifluoromethyl-3H-imidazo[4,5-b]pyridine], which mortality at 0.01 mg is on record?
Answer: 100%

Question: And the mortality at 0.2 mg?
Answer: 100%

Question: What does the source list for `CCSc1cccnc1-c1nc2cc(I)cnc2n1C` [Present fused heterocyclic compound 9, 2-(3-ethylsulfanyl-pyridin-2-yl)-6-iodo-3-methyl-3H-imidazo[4,5-b]pyridine]?
Answer: mortality at 0.01 mg: 100%; mortality at 0.2 mg: 100%

Question: What does the source list for `CCS(=O)(=O)c1cccnc1-c1nc2cc(SC(F)(F)F)cnc2n1C` [Present fused heterocyclic compound 15, 2-(3-ethylsulfonyl-pyridin-2-yl)-3-methyl-6-trifluoromethylsulfanyl-3H-imidazo[4,5-b]pyridine]?
Answer: mortality at 0.01 mg: 100%; mortality at 0.2 mg: 100%

Question: Which mortality at 0.01 mg does the source give for `CCS(=O)(=O)c1cccnc1-c1nc2cc(S(=O)(=O)C(F)(F)F)cnc2n1C` [Present fused heterocyclic compound 16, 2-(3-ethylsulfonyl-pyridin-2-yl)-3-methyl-6-trifluoromethylsulfonyl-3H-imidazo[4,5-b]pyridine] here?
Answer: 100%

Question: What about the mortality at 0.2 mg of the same molecule?
Answer: 100%

Question: For `CCSc1cc(C(F)(F)F)cnc1-c1nc2cc(C(F)(F)C(F)(F)F)cnc2n1C` [Present fused heterocyclic compound 17, 2-(3-Ethylsulfanyl-5-trifluoromethyl-pyridin-2-yl)-3-methyl-6-pentafluoroethyl-3H-imidazo[4,5-b]pyridine], which mortality at 0.01 mg is on record?
Answer: 100%

Question: What about the mortality at 0.2 mg of the same molecule?
Answer: 100%

Question: How did the mortality at 0.01 mg turn out when `CC[S+]([O-])c1cc(C(F)(F)F)cnc1-c1nc2cc(C(F)(F)C(F)(F)F)cnc2n1C` (stereo not drawn) [Present fused heterocyclic compound 18, 2-(3-Ethylsulfinyl-5-trifluoromethyl-pyridin-2-yl)-3-methyl-6-pentafluoroethyl-3H-imidazo[4,5-b]pyridine] was run?
Answer: 100%

Question: And the mortality at 0.2 mg?
Answer: 100%

Question: For `CCS(=O)(=O)c1cc(C(F)(F)F)cnc1-c1nc2cc(C(F)(F)C(F)(F)F)cnc2n1C` [Present fused heterocyclic compound 19, 2-(3-ethylsulfonyl-5-trifluoromethyl-pyridin-2-yl)-3-methyl-6-pentafluoroethyl-3H-imidazo[4,5-b]pyridine], which mortality at 0.01 mg is on record?
Answer: 100%

Question: What about the mortality at 0.2 mg of the same molecule?
Answer: 100%

Question: `CCS(=O)(=O)c1cccnc1-c1nc2cc([S+]([O-])C(F)(F)F)cnc2n1C` (stereo not drawn) [Present fused heterocyclic compound 20, 2-(3-ethylsulfonyl-pyridin-2-yl)-3-methyl-6-trifluoromethylsulfinyl-3H-imidazo[4,5-b]pyridine] was tested. Which mortality at 0.01 mg did it give?
Answer: 100%

Question: What about the mortality at 0.2 mg of the same molecule?
Answer: 100%

Question: Which results are given for `CCS(=O)(=O)c1cccnc1-c1nc2cc(C(F)(F)F)c[n+]([O-])c2s1` [Present fused heterocyclic compound 22, 2-(3-ethylsulfonyl-2-yl)-6-(trifluoromethyl)thiazolo[5,4-b]pyridine 4-oxide]?
Answer: mortality at 0.01 mg: 100%; mortality at 0.2 mg: 100%

Question: What does the source list for `CCS(=O)(=O)c1cc(C(F)(F)F)cnc1-c1nc2cc(S(=O)(=O)C(F)(F)F)cnc2n1C` [Present fused heterocyclic compound 25, 2-(3-Ethylsulfonyl-5-trifluoromethyl-pyridin-2-yl)-3-methyl-6-trifluoromethylsulfonyl-3H-imidazo[4,5-b]pyridine]?
Answer: mortality at 0.01 mg: 100%; mortality at 0.2 mg: 100%

Question: Which mortality at 0.01 mg does the source give for `CCS(=O)(=O)c1cc(C(F)(F)C(F)(F)F)cnc1-c1nc2cc(C(F)(F)F)cnc2n1C` [Present fused heterocyclic compound 72, 2-(3-ethylsulfonyl-5-pentafluoroethylpyridin-2-yl)-3-methyl-6-trifluoromethyl-3H-imidazo[4,5-b]pyridine] here?
Answer: 100%

Question: And the mortality at 0.2 mg?
Answer: 100%

Question: `CCS(=O)(=O)c1cc(C(F)(F)C(F)(F)F)cnc1-c1nc2cc(C(F)(F)C(F)(F)F)cnc2n1C` [Present fused heterocyclic compound 74, 2-(3-ethylsulfonyl-5-pentafluoroethylpyridin-2-yl)-3-methyl-6-pentafluoroethyl-3H-imidazo[4,5-b]pyridine] was tested. Which mortality at 0.01 mg did it give?
Answer: 100%

Question: What about the mortality at 0.2 mg of the same molecule?
Answer: 100%

Question: For `CCS(=O)(=O)c1cccnc1-c1nc2cc(C(F)(F)F)ccc2o1` [Present fused heterocyclic compound 85, 2-(3-Ethylsulfonylpyridin-2-yl)-5-trifluoromethyl-benzoxazole], which mortality at 0.01 mg is on record?
Answer: 90%

Question: What about the mortality at 0.2 mg of the same molecule?
Answer: 95%

Question: For `CCS(=O)(=O)c1cccnc1-c1nc2cc(C(F)(F)F)cc(C#N)c2n1C` [Present fused heterocyclic compound 130, 7-Cyano-2-(3-ethylsulfonylpyridin-2-yl)-1-methyl-5-trifluoromethyl-1H-benzimidazole], which mortality at 0.01 mg is on record?
Answer: 100%

Question: What about the mortality at 0.2 mg of the same molecule?
Answer: 80%

Question: With `CCS(=O)(=O)c1cc(C(F)(F)F)cnc1-c1nc2cc(C(F)(F)F)c(C#N)nc2n1C` [Present fused heterocyclic compound 399, 5-cyano-2-(3-ethylsulfonyl-5-trifluoromethylpyridin-2-yl)-3-methyl-6-trifluoromethyl-3H-imidazo[4,5-b]pyridine] as the molecule, how does the mortality at 0.01 mg read?
Answer: 90%

Question: What about the mortality at 0.2 mg of the same molecule?
Answer: 95%

Question: For `CCS(=O)(=O)c1cc(C(F)(F)F)cnc1-c1nc2cc(C(F)(F)C(F)(F)F)c[n+]([O-])c2n1C` [Present fused heterocyclic compound 409, 2-(3-ethylsulfonyl-5-trifluoromethyl-pyridin-2-yl)-3-methyl-6-pentafluoroethyl-3H-imidazo[4,5-b]pyridine 4-oxide], which mortality at 0.01 mg is on record?
Answer: 100%

Question: What about the mortality at 0.2 mg of the same molecule?
Answer: 100%

Question: For `CCS(=O)(=O)c1cc(C(OC)(OC)OC)cnc1-c1nc2cc(C(F)(F)C(F)(F)F)cnc2n1C` [Present fused heterocyclic compound 414, 2-(3-ethylsulfonyl-5-trimethoxymethyl-pyridin-2-yl)-3-methyl-6-pentafluoroethyl-3H-imidazo[4,5-b]pyridine], which mortality at 0.01 mg is on record?
Answer: 95%

Question: What about the mortality at 0.2 mg of the same molecule?
Answer: 100%

Question: How did the mortality at 0.01 mg turn out when `Cn1c(-c2ncc(C(F)(F)F)cc2S(C)(=O)=O)nc2cc(C(F)(F)C(F)(F)F)cnc21` [Present fused heterocyclic compound 419, 2-(3-Methylsulfonyl-5-trifluoromethylpyridin-2-yl)-3-methyl-6-pentafluoroethyl-3H-imidazo[4,5-b]pyridine] was run?
Answer: 100%

Question: What about the mortality at 0.2 mg of the same molecule?
Answer: 100%

Question: Which results are given for `CCS(=O)(=O)c1cccnc1-c1nc2cc(SC(F)(F)F)ccc2o1` [Present fused heterocyclic compound 443, 2-(3-ethylsulfonylpyridin-2-yl)-5-(trifluoromethylsulfanyl)benzoxazole]?
Answer: mortality at 0.01 mg: 100%; mortality at 0.2 mg: 100%

Question: Which results are given for `CCS(=O)(=O)c1cccnc1-c1nc2cc([S+]([O-])C(F)(F)F)ccc2o1` (stereo not drawn) [Present fused heterocyclic compound 444, 2-(3-ethylsulfonylpyridin-2-yl)-5-(trifluoromethylsulfinyl)benzoxazole]?
Answer: mortality at 0.01 mg: 100%; mortality at 0.2 mg: 100%

Question: What does the source list for `CCS(=O)(=O)c1cccnc1-c1nc2cc(S(=O)(=O)C(F)(F)F)ccc2o1` [Present fused heterocyclic compound 445, 2-(3-ethylsulfonylpyridin-2-yl)-5-(trifluoromethylsulfonyl)benzoxazole]?
Answer: mortality at 0.01 mg: 100%; mortality at 0.2 mg: 100%

Question: `CCS(=O)(=O)c1cccnc1-c1nc2cc(C(F)(F)C(F)(F)F)cnc2o1` [Present fused heterocyclic compound 464, 2-(3-Ethylsulfonylpyridin-2-yl)-6-pentafluoroethyl-oxazolo[5,4-b]pyridine] was tested. Which mortality at 0.01 mg did it give?
Answer: 100%

Question: And the mortality at 0.2 mg?
Answer: 100%
